Experimental data: patent publication EP2970215B1, “PYRROLIDINE DERIVATIVES, PHARMACEUTICAL COMPOSITIONS CONTAINING THEM, AND THEIR USE IN THERAPY” (AbbVie Deutschland GmbH & Co. KG, priority 2013, dated 2014)

Target: T1, human GlyT1c transporter (Homo sapiens, UniProt P48067)
T1 construct: expressed in transfected cells; host or cells: CHO cells (recombinant; line hGlyT1c_5_CHO is named for the uptake assay)
T1 sequence (P48067 1-706): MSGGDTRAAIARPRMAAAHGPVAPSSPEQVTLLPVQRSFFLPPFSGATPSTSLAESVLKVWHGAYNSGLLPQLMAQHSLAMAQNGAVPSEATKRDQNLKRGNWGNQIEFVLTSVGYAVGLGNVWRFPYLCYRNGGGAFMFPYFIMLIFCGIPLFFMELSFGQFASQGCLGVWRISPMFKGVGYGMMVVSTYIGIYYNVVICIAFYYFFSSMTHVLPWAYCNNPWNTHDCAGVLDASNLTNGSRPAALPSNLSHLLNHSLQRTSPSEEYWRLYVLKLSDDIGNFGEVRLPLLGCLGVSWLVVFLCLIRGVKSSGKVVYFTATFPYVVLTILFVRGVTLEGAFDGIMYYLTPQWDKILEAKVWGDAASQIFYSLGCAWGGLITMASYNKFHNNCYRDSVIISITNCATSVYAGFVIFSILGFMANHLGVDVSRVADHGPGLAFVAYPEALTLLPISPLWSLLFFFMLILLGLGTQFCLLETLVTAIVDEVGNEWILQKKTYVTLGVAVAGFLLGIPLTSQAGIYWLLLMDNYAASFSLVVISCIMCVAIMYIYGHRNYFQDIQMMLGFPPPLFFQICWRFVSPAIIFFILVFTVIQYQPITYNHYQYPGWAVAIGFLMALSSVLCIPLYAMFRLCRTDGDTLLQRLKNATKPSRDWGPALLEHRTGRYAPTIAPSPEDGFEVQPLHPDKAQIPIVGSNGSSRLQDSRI
Assay: Radioligand binding assay using recombinant CHO cell membranes expressing human GlyT1
Settings: radioligand binding to human GlyT1c transporter-expressing membranes
From the text: 2. Radioligand binding assays using recombinant CHO cell membranes expressing human GlyT1: […]

`Cn1cnc(S(=O)(=O)N2C[C@H](Nc3ccc(Cl)c(OC(F)(F)F)c3)[C@@H](c3ccc(F)cc3)C2)c1` [Example 585, (3R,4S)-N-[4-chloro-3-(trifluoromethoxy)phenyl]-4-(4-fluorophenyl)-1-[(1-methyl-1H-imidazol-4-yl)sulfonyl]pyrrolidin-3-amine] and `Cc1cc(N[C@H]2CN(S(=O)(=O)c3cn(C)cn3)C[C@@H]2c2ccc(F)cc2)ccc1C(F)(F)F` [Example 676, (3R,4S)-4-(4-fluorophenyl)-1-[(1-methyl-1H-imidazol-4-yl)sulfonyl]-N-[3-methyl-4-(trifluoromethyl)phenyl]pyrrolidin-3-amine] cannot be ordered by Ki: no more than 100 nM for the first, no more than 1000 nM for the second.

`Cn1cnc(S(=O)(=O)N2C[C@@H](NCc3ccc(Cl)cc3Cl)[C@H](c3ccccn3)C2)c1` (relative stereo) [Example 307, trans-N-(2,4-dichlorobenzyl)-1-[(1-methyl-1H-imidazol-4-yl)sulfonyl]-4-(pyridin-2-yl)pyrrolidin-3-amine] and `Cn1cnc(S(=O)(=O)N2C[C@@H](Nc3cccc(F)c3)[C@H](c3ncccc3F)C2)c1` (relative stereo) [Example 805, Trans-N-(3-fluorophenyl)-4-(3-fluoropyridin-2-yl)-1-[(1-methyl-1H-imidazol-4-yl)sulfonyl]pyrrolidin-3-amine] cannot be ordered by Ki: no more than 100 nM for the first, no more than 1000 nM for the second.

`Cn1cnc(S(=O)(=O)N2C[C@H](NC(=O)Nc3ccc(F)cc3)[C@@H](c3ccc(F)cc3)C2)c1` [Example 704, 1-(4-fluorophenyl)-3-{(3R,4S)-4-(4-fluorophenyl)-1-[(1-methyl-1H-imidazol-4-yl)sulfonyl]pyrrolidin-3-yl}urea] and `Cn1cnc(S(=O)(=O)N2C[C@@H](Nc3ccc(F)c(F)c3)[C@H](c3ccc(F)cc3)C2)c1` (relative stereo) [Example 158, trans-N-(3,4-difluorophenyl)-4-(4-fluorophenyl)-1-[(1-methyl-1H-imidazol-4-yl)sulfonyl]pyrrolidin-3-amine] cannot be ordered by Ki: no more than 1000 nM for the first, no more than 100 nM for the second.

`Cn1cnc(S(=O)(=O)N2C[C@@H](Nc3ccc4cnccc4c3)[C@H](c3ccccc3)C2)c1` (relative stereo) [Example 230, N-{trans-1-[(1-methyl-1H-imidazol-4-yl)sulfonyl]-4-phenylpyrrolidin-3-yl}isoquinolin-6-amine] and `Cn1cnc(S(=O)(=O)N2C[C@@H](Nc3ccc4ncccc4c3)[C@H](c3ccccc3)C2)c1` (relative stereo) [Example 229, N-{trans-1-[(1-methyl-1H-imidazol-4-yl)sulfonyl]-4-phenylpyrrolidin-3-yl}quinolin-6-amine] cannot be ordered by Ki: no more than 10000 nM for the first, no more than 10000 nM for the second.

`CC(C)COc1cc(N[C@H]2CN(S(=O)(=O)c3cn(C)cn3)C[C@@H]2c2ccc(F)cc2)ncn1` [Example 718, N-{(3R,4S)-4-(4-fluorophenyl)-1-[(1-methyl-1H-imidazol-4-yl)sulfonyl]pyrrolidin-3-yl}-6-(2-methylpropoxy)pyrimidin-4-amine] and `CCOc1cc(N[C@H]2CN(S(=O)(=O)c3cn(C)cn3)C[C@@H]2c2ccc(F)cc2)ncn1` [Example 715, 6-ethoxy-N-{(3R,4S)-4-(4-fluorophenyl)-1-[(1-methyl-1H-imidazol-4-yl)sulfonyl]pyrrolidin-3-yl}pyrimidin-4-amine] cannot be ordered by Ki: no more than 100 nM for the first, no more than 1000 nM for the second.

`Cn1cnc(S(=O)(=O)N2C[C@@H](Nc3cccc(OCC(F)(F)F)c3)[C@H](c3ncccc3F)C2)c1` (relative stereo) [Example 800, Trans-4-(3-fluoropyridin-2-yl)-1-[(1-methyl-1H-imidazol-4-yl)sulfonyl]-N-[3-(2,2,2-trifluoroethoxy)phenyl]pyrrolidin-3-amine] and `Cn1cnc(S(=O)(=O)N2C[C@@H](Nc3cccc(F)c3)[C@H](c3cccc(F)c3)C2)c1` (relative stereo) [Example 186, trans-N,4-bis(3-fluorophenyl)-1-[(1-methyl-1H-imidazol-4-yl)sulfonyl]pyrrolidin-3-amine] cannot be ordered by Ki: no more than 10 nM for the first, no more than 1000 nM for the second.

`Cn1cnc(S(=O)(=O)N2C[C@@H](Oc3cc(C(F)(F)F)ccn3)[C@H](c3ccc(F)cc3)C2)c1` (relative stereo) [Example 379, 2-({trans-4-(4-fluorophenyl)-1-[(1-methyl-1H-imidazol-4-yl)sulfonyl]pyrrolidin-3-yl}oxy)-4-(trifluoromethyl)pyridine] and `Cn1cnc(S(=O)(=O)N2C[C@@H](Nc3cc(C(F)(F)F)ccc3F)[C@H](c3ccc(F)cc3)C2)c1` (relative stereo) [Example 169, trans-4-(4-fluorophenyl)-N-[2-fluoro-5-(trifluoromethyl)phenyl]-1-[(1-methyl-1H-imidazol-4-yl)sulfonyl]pyrrolidin-3-amine] cannot be ordered by Ki: no more than 100 nM for the first, no more than 10000 nM for the second.

`Cn1cnc(S(=O)(=O)N2C[C@@H](NCc3cccc(F)c3)[C@H](c3ccc(F)cc3)C2)c1` (relative stereo) [Example 264, trans-N-(3-fluorobenzyl)-4-(4-fluorophenyl)-1-[(1-methyl-1H-imidazol-4-yl)sulfonyl]pyrrolidin-3-amine] and `Cn1cnc(S(=O)(=O)N2C[C@@H](OCc3cccc(F)c3)[C@H](c3ccc(F)cc3)C2)c1` (relative stereo) [Example 712, 4-{[trans-3-[(3-fluorobenzyl)oxy]-4-(4-fluorophenyl)pyrrolidin-1-yl]sulfonyl}-1-methyl-1H-imidazole] cannot be ordered by Ki: no more than 1000 nM for the first, no more than 1000 nM for the second.

`Cn1cnc(S(=O)(=O)N2C[C@H](Nc3ccc(C#N)c(C(F)(F)F)c3)[C@@H](c3ccc(F)cc3)C2)c1` [Example 639, 4-({(3R,4S)-4-(4-fluorophenyl)-1-[(1-methyl-1H-imidazol-4-yl)sulfonyl]pyrrolidin-3-yl}amino)-2-(trifluoromethyl)benzonitrile] and `Cn1cnc(S(=O)(=O)N2C[C@@H](Nc3ccc(F)c(Cl)c3)[C@H](c3cccc(F)c3)C2)c1` (relative stereo) [Example 194, trans-N-(3-chloro-4-fluorophenyl)-4-(3-fluorophenyl)-1-[(1-methyl-1H-imidazol-4-yl)sulfonyl]pyrrolidin-3-amine] cannot be ordered by Ki: no more than 10000 nM for the first, no more than 100 nM for the second.

`Cn1cnc(S(=O)(=O)N2C[C@@H](C(=O)NCc3ccccc3)[C@H](c3ccc(F)cc3)C2)c1` (relative stereo) [Example 289, Trans-N-benzyl-4-(4-fluorophenyl)-1-[(1-methyl-1H-imidazol-4-yl)sulfonyl]pyrrolidine-3-carboxamide] and `CC(=O)CCCC(=O)N[C@H]1CN(S(=O)(=O)c2cn(C)cn2)C[C@@H]1c1ccc(F)cc1` [Example 695, N-{(3R,4S)-4-(4-fluorophenyl)-1-[(1-methyl-1H-imidazol-4-yl)sulfonyl]pyrrolidin-3-yl}-5-oxohexanamide] cannot be ordered by Ki: no more than 1000 nM for the first, no more than 10000 nM for the second.

`Cc1nn(C(C)C)cc1S(=O)(=O)N1CC(Nc2ccc(F)c(F)c2)C(c2ccccc2)C1` (stereo not shown) [Example 475, N-(3,4-difluorophenyl)-1-{[3-methyl-1-(propan-2-yl)-1H-pyrazol-4-yl]sulfonyl}-4-phenylpyrrolidin-3-amine] and `Cn1ccc2cc(S(=O)(=O)N3CC(Nc4ccc(F)c(F)c4)C(c4ccccc4)C3)ccc21` (stereo not shown) [Example 503, N-(3,4-difluorophenyl)-1-[(1-methyl-1H-indol-5-yl)sulfonyl]-4-phenylpyrrolidin-3-amine] cannot be ordered by Ki: no more than 10000 nM for the first, no less than 10000 nM for the second.

`O=C1CCc2cc(S(=O)(=O)N3CC(Nc4ccc(F)c(F)c4)C(c4ccccc4)C3)ccc2N1` (stereo not shown) [Example 512] and `O=S(=O)(c1ccc2c(c1)CCO2)N1CC(Nc2ccc(F)c(F)c2)C(c2ccccc2)C1` (stereo not shown) [Example 519, N-(3,4-difluorophenyl)-1-(2,3-dihydro-1-benzofuran-5-ylsulfonyl)-4-phenylpyrrolidin-3-amine] cannot be ordered by Ki: no more than 10000 nM for the first, greater than 10000 nM for the second.

`Cn1cnc(S(=O)(=O)N2C[C@@H](Nc3ccc(F)c(F)c3)[C@H](c3ncco3)C2)c1` (relative stereo) [Example 709, Trans-N-[3,4-difluorophenyl]-1-[(1-methyl-1H-imidazol-4-yl)sulfonyl]-4-(1,3-oxazol-2-yl)pyrrolidin-3-amine] and `Cn1cnc(S(=O)(=O)N2C[C@@H](Nc3ccc(F)c(OC(F)(F)F)c3)[C@H](C3CCCCO3)C2)c1` (stereo partly drawn) [Example 741, (3S,4R)-N-[4-fluoro-3-(trifluoromethoxy)phenyl]-1-[(1-methyl-1H-imidazol-4-yl)sulfonyl]-4-(tetrahydro-2H-pyran-2-yl)pyrrolidin-3-amine] cannot be ordered by Ki: no more than 10000 nM for the first, no more than 100 nM for the second.

`Cn1cnc(S(=O)(=O)N2C[C@@H]([C@@H]3CCCOC3)[C@H](Nc3ccc(Cl)c(C(F)(F)F)c3)C2)c1` (relative stereo) [Example 792, Trans-N-[4-chloro-3-(trifluoromethyl)phenyl]-1-[(1-methyl-1H-imidazol-4-yl)sulfonyl]-4-[(3S)-tetrahydro-2H-pyran-3-yl]pyrrolidin-3-amine] showed a Ki of no more than 10000 nM.

Same assay, conditions: radioligand binding, recombinant CHO cell membranes expressing human GlyT1c

Compound `Cn1cnc(S(=O)(=O)N2C[C@@H](Nc3ccc(F)c(Cl)c3)[C@H](C3CCCO3)C2)c1` (relative stereo) [Example 824, Trans-N-(3-chloro-4-fluorophenyl)-1-[(1-methyl-1H-imidazol-4-yl)sulfonyl]-4-(tetrahydrofuran-2-yl)pyrrolidin-3-amine] has a Ki of no more than 1000 nM.
